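Method: 48-hour compound exposure of cells in 96-well plates, five concentrations, linear interpolation of endpoints. GI50: concentration for 50% inhibition of growth.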 Calls of active or inactive are those of the source. Rule as the data show it: active = GI50 up to about 1.1 µM and inactive = higher.
Legend:
Experiment in all cases: growth of human tumour cells (NCI), 48 h
786-0 = system: 786-0
K562 = system: K562
SF-268 = system: SF-268
LOX IMVI = system: LOX IMVI
HOP-62 = system: HOP-62
SR = system: SR
U-251 = system: U-251
Malme-3M = system: Malme-3M
KM12 = system: KM12
COLO 205 = system: COLO 205
SK-MEL-2 = system: SK-MEL-2
UO-31 = system: UO-31
OVCAR-5 = system: OVCAR-5
TK-10 = system: TK-10
SNB-75 = system: SNB-75
CCRF-CEM = system: CCRF-CEM
HOP-92 = system: HOP-92

Measured: GI50

CCOC(=O)CNC(=O)c1nc[nH]c1/N=N/N(C)C
inactive: 786-0 > 100 µM | K562 > 100 µM | SF-268 > 100 µM | LOX IMVI > 100 µM | HOP-62 > 100 µM | SR > 100 µM | U-251 > 100 µM | Malme-3M > 100 µM | KM12 > 100 µM | COLO 205 > 100 µM | SK-MEL-2 > 100 µM | UO-31 > 100 µM | OVCAR-5 > 100 µM | TK-10 > 100 µM | SNB-75 > 100 µM | CCRF-CEM > 100 µM

CC1=C/C(=C2/N=C(N(C)C)SS2)C(C)=N1.[O-][Cl+3]([O-])([O-])O
inactive: 786-0 > 100 µM | K562 42.1 µM | HOP-92 > 100 µM | SF-268 > 100 µM | LOX IMVI 37.3 µM | HOP-62 > 100 µM | SR > 100 µM | U-251 > 100 µM | Malme-3M 21.8 µM | KM12 > 100 µM | COLO 205 3.07 µM | UO-31 > 100 µM | OVCAR-5 > 100 µM | TK-10 > 100 µM | SNB-75 > 100 µM

COc1nc2c(nc(N)n2C2OC(CO)C(O)C(O)C2O)c(=O)[nH]1 (configuration not stated)
inactive: 786-0 > 100 µM | K562 > 100 µM | HOP-92 > 100 µM | SF-268 > 100 µM | LOX IMVI > 100 µM | HOP-62 > 100 µM | SR > 100 µM | U-251 > 100 µM | Malme-3M > 100 µM | KM12 > 100 µM | COLO 205 > 100 µM | UO-31 > 100 µM | TK-10 > 100 µM | SNB-75 > 100 µM | CCRF-CEM > 100 µM

CC(=O)NNc1nc(C)c(C(=O)/C=C/c2ccc(NC(C)=O)cc2)s1
inactive: 786-0 > 100 µM | K562 > 100 µM | HOP-92 > 100 µM | SF-268 > 100 µM | LOX IMVI > 100 µM | HOP-62 > 100 µM | U-251 > 100 µM | Malme-3M > 100 µM | KM12 > 100 µM | COLO 205 > 100 µM | SK-MEL-2 > 100 µM | UO-31 > 100 µM | OVCAR-5 > 100 µM | TK-10 > 100 µM | SNB-75 > 100 µM | CCRF-CEM > 100 µM

N=C(N)NS(=O)(=O)c1ccc(NC(=O)c2cccn3c(=O)c4ccccc4nc23)cc1
inactive: 786-0 > 100 µM | K562 32.3 µM | HOP-92 > 100 µM | SF-268 > 100 µM | LOX IMVI 33.7 µM | HOP-62 > 100 µM | SR 24.5 µM | U-251 > 100 µM | Malme-3M > 100 µM | KM12 15.9 µM | COLO 205 18.2 µM | UO-31 55.1 µM | TK-10 61 µM | SNB-75 > 100 µM | CCRF-CEM 35.6 µM

COc1ccc(OC)c2c(C(=O)O)c(Cc3ccccc3)ccc12
inactive: 786-0 > 100 µM | K562 > 100 µM | SF-268 > 100 µM | LOX IMVI > 100 µM | HOP-62 > 100 µM | SR > 100 µM | U-251 > 100 µM | Malme-3M > 100 µM | KM12 > 100 µM | COLO 205 > 100 µM | SK-MEL-2 > 100 µM | UO-31 > 100 µM | OVCAR-5 > 100 µM | TK-10 > 100 µM | SNB-75 > 100 µM | CCRF-CEM > 10 µM

C(=C\c1cc(CCc2nc3ccccc3[nH]2)n[nH]1)/c1ccccc1
inactive: 786-0 > 100 µM | K562 > 100 µM | HOP-92 > 100 µM | SF-268 > 100 µM | LOX IMVI > 100 µM | HOP-62 > 100 µM | SR > 100 µM | U-251 > 100 µM | Malme-3M > 100 µM | KM12 > 100 µM | COLO 205 > 100 µM | UO-31 > 100 µM | OVCAR-5 > 100 µM | TK-10 > 100 µM | SNB-75 > 100 µM | CCRF-CEM 89.3 µM

CCN(CC)CCC(=O)/C=C/c1ccc(C)cc1
inactive: 786-0 11.9 µM | K562 19.5 µM | HOP-92 19.2 µM | SF-268 15.8 µM | LOX IMVI 4.53 µM | HOP-62 25.7 µM | SR 6.78 µM | U-251 10.2 µM | Malme-3M 19.3 µM | KM12 3.18 µM | COLO 205 4.72 µM | UO-31 16.2 µM | OVCAR-5 18.6 µM | TK-10 6.85 µM | SNB-75 15.6 µM | CCRF-CEM 10.1 µM

COC(=O)C(CC(=O)c1ccccc1)c1ccccc1NC(C)=O (configuration not stated)
inactive: 786-0 > 100 µM | K562 > 100 µM | HOP-92 > 100 µM | SF-268 > 100 µM | LOX IMVI > 100 µM | HOP-62 > 100 µM | SR > 100 µM | U-251 > 100 µM | Malme-3M > 100 µM | KM12 > 100 µM | COLO 205 > 100 µM | UO-31 29.9 µM | OVCAR-5 > 100 µM | TK-10 > 100 µM | SNB-75 87.1 µM | CCRF-CEM > 100 µM

CCOC(=O)NC1C2CC(=O)C(O2)C1OCc1ccccc1 (configuration not stated)
inactive: 786-0 > 100 µM | K562 > 100 µM | HOP-92 > 100 µM | SF-268 > 100 µM | LOX IMVI > 100 µM | HOP-62 > 100 µM | U-251 > 100 µM | Malme-3M > 100 µM | KM12 > 100 µM | COLO 205 > 100 µM | SK-MEL-2 > 100 µM | UO-31 78 µM | OVCAR-5 > 100 µM | SNB-75 > 100 µM | CCRF-CEM > 100 µM

[O-][S+]1c2ccccc2NC(c2ccc3ccccc3c2)CC1c1ccccc1 (configuration not stated)
inactive: 786-0 17.3 µM | K562 16 µM | SF-268 36.4 µM | LOX IMVI 17.9 µM | HOP-62 40.6 µM | Malme-3M 61.5 µM | KM12 16.7 µM | COLO 205 29.9 µM | SK-MEL-2 92.7 µM | UO-31 18 µM | OVCAR-5 42 µM | TK-10 35.4 µM | SNB-75 24.8 µM | CCRF-CEM 17 µM

O=c1cc(-c2ccccc2)[nH]c2c(Cl)cccc12
inactive: 786-0 26.3 µM | K562 2.77 µM | SF-268 38.4 µM | LOX IMVI 9.35 µM | HOP-62 7.26 µM | SR 7.53 µM | U-251 87.5 µM | Malme-3M 64.9 µM | COLO 205 29.7 µM | SK-MEL-2 6.97 µM | UO-31 34.2 µM | TK-10 > 100 µM | SNB-75 13.8 µM | CCRF-CEM 16.1 µM

CN(C)c1ccc(/C=C2\N=C(c3ccc(N)cc3)OC2=O)cc1
inactive: 786-0 > 100 µM | K562 38.8 µM | HOP-92 > 100 µM | SF-268 > 100 µM | LOX IMVI > 100 µM | HOP-62 > 100 µM | U-251 > 100 µM | Malme-3M > 100 µM | KM12 > 100 µM | COLO 205 > 100 µM | SK-MEL-2 > 100 µM | UO-31 > 100 µM | OVCAR-5 > 100 µM | TK-10 > 100 µM | SNB-75 > 100 µM | CCRF-CEM > 100 µM

CC1CC2(S(=O)(=O)c3ccccc3)ON1CC2S(=O)(=O)c1ccccc1 (configuration not stated)
inactive: 786-0 > 100 µM | K562 > 100 µM | SF-268 > 100 µM | LOX IMVI > 100 µM | HOP-62 > 100 µM | SR > 100 µM | U-251 > 100 µM | Malme-3M > 100 µM | KM12 > 100 µM | COLO 205 > 100 µM | SK-MEL-2 > 100 µM | UO-31 > 100 µM | OVCAR-5 > 100 µM | TK-10 > 100 µM | SNB-75 > 100 µM | CCRF-CEM > 100 µM

N#CC(C(=O)CCC(=O)Nc1ccc(Cl)cc1)c1ccccc1Cl (configuration not stated)
inactive: 786-0 > 100 µM | K562 18.4 µM | HOP-92 > 100 µM | SF-268 32.1 µM | U-251 > 100 µM | Malme-3M > 100 µM | KM12 43.1 µM | COLO 205 > 100 µM | SK-MEL-2 51.6 µM | UO-31 > 100 µM | OVCAR-5 50.5 µM | TK-10 > 100 µM | SNB-75 45.9 µM | CCRF-CEM > 100 µM

CCCC(=O)c1c(NOC2OCC(OC(C)=O)C(OC(C)=O)C2OC(C)=O)nc(OC)n(C)c1=O (configuration not stated)
inactive: 786-0 > 100 µM | K562 17.4 µM | HOP-92 > 100 µM | SF-268 > 100 µM | LOX IMVI > 100 µM | HOP-62 > 100 µM | SR > 100 µM | U-251 > 100 µM | Malme-3M > 100 µM | KM12 > 100 µM | COLO 205 > 100 µM | UO-31 > 100 µM | OVCAR-5 > 100 µM | TK-10 > 100 µM | SNB-75 > 100 µM | CCRF-CEM 3.25 µM

COc1ccc(/C(Cl)=C(/c2ccc(O)cc2)c2ccc(OCCN(C)C)cc2)cc1
inactive: 786-0 6.03 µM | SF-268 11.8 µM | LOX IMVI 2.96 µM | HOP-62 13.6 µM | SR 2.9 µM | U-251 11.2 µM | Malme-3M 4.62 µM | KM12 9.14 µM | COLO 205 9.86 µM | SK-MEL-2 10.4 µM | UO-31 7.03 µM | OVCAR-5 13.3 µM | TK-10 19.7 µM | SNB-75 11 µM

N#CC(C(=O)CCC(=O)Nc1ccc(Cl)c(Cl)c1)c1ccccc1 (configuration not stated)
inactive: 786-0 > 100 µM | K562 > 100 µM | HOP-92 > 100 µM | SF-268 > 100 µM | HOP-62 > 100 µM | U-251 > 100 µM | Malme-3M > 100 µM | KM12 > 100 µM | SK-MEL-2 > 100 µM | UO-31 > 100 µM | OVCAR-5 > 100 µM | SNB-75 > 100 µM
